What was measured:
[1] = Half life in Sprague-Dawley rat at 0.5 mg/kg, sc administered as single dose and measured up to 48 hrs; type: ADME, organism-based; conditions: in vivo
[2] = Bioavailability in Sprague-Dawley rat at 0.5 mg/kg, sc administered as single dose and measured up to 48 hrs; type: ADME, organism-based; conditions: in vivo
[3] = Tmax in Sprague-Dawley rat at 0.5 mg/kg, sc administered as single dose and measured up to 48 hrs; type: ADME, organism-based; conditions: in vivo
[4] = AUC (0 to t) in Sprague-Dawley rat at 0.5 mg/kg, sc administered as single dose and measured up to 48 hrs; type: ADME, organism-based; set-up: route subcutaneous, dose 0.5 mg/kg, time <=48; conditions: in vivo
[5] = Unbound Cmax in Sprague-Dawley rat at 0.5 mg/kg, sc administered as single dose and measured up to 48 hrs; type: ADME, organism-based; conditions: in vivo
[6] = Half life in Sprague-Dawley rat at 0.1 mg/kg, iv administered as single dose and measured up to 48 hrs; type: ADME, organism-based; conditions: in vivo
[7] = Volume of distribution at steady state in Sprague-Dawley rat at 0.1 mg/kg, iv administered as single dose and measured up to 48 hrs; type: ADME, organism-based; conditions: in vivo, read-out: Vdss
[8] = Unbound clearance in Sprague-Dawley rat at 0.1 mg/kg, iv administered as single dose and measured up to 48 hrs; type: ADME, organism-based; conditions: in vivo
[9] = Clearance in Sprague-Dawley rat at 0.1 mg/kg, iv administered as single dose and measured up to 48 hrs; type: ADME, organism-based; conditions: in vivo
[10] = AUC (0 to t) in Sprague-Dawley rat at 0.1 mg/kg, iv administered as single dose and measured up 48 hrs; type: ADME, organism-based; set-up: dose 0.1 mg/kg, time <=48; conditions: in vivo
Apelin receptor = biological target: T1, Apelin receptor (Rattus norvegicus, UniProt Q9JHG3); assay: Agonist activity at rat APJ receptor stably expressed in CHO cell membranes in presence of [35S]GTPgammaS by scintillation proximity assay; type: functional
T1 sequence (Q9JHG3 whole entry): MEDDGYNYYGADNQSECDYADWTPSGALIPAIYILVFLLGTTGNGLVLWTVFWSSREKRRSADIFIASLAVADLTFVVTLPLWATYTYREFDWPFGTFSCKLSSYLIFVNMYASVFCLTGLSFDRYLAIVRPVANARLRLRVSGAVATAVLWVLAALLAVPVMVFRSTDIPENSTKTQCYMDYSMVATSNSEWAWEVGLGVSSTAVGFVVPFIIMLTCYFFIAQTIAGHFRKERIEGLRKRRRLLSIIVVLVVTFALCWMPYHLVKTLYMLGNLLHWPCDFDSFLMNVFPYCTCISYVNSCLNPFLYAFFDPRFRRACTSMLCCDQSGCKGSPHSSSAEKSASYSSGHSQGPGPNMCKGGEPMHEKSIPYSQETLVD

[11] = Stability in rat plasma assessed as compound remaining at 4 hrs; type: ADME, cell-free; conditions: read-out: Stabilty
[12] = Stability in rat liver S9 fraction assessed as compound remaining at 4 hrs; type: ADME, subcellular; conditions: read-out: Stabilty
[13] = Stability in rat Kidney S9 fraction assessed as compound remaining at 4 hrs; type: ADME, subcellular; conditions: read-out: Stabilty
[14] = Plasma protein binding in rat assessed as unbound fraction by LC-MS/MS analysis; type: ADME, cell-free

Row | Compound | half-life [1] | bioavailability [2] | Tmax [3] | AUC(0-t) at 48 h [4] | fCmax [5] | half-life [6] | Vd [7] | CL free [8] | clearance [9] | AUC(0-t) at 48 h [10] | EC50 (Apelin receptor) | remaining at 4 h [11] | remaining at 4 h [12] | remaining at 4 h [13] | fraction unbound [14]
1 | CCCCCCCCCCCCCCC(=O)N[C@@H](CCC(=O)NCCOCCOCC(=O)NCCOCCOCC(=O)N[C@@H](CCCCNC(=N)N)C(=O)N[C@H](CCCNC(=N)N)C(=O)N[C@@H](CCC(N)=O)C(=O)N[C@@H](CCCCNC(=N)N)C(=O)N1CCC[C@H]1C(=O)N[C@H](CCCNC(=N)N)C(=O)N(C)[C@@H](CC(C)C)C(=O)N[C@@H](CO)C(=O)N[C@@H](Cc1c[nH]cn1)C(=O)N[C@@H](CCCCN)C(=O)NCC(=O)N1[C@H](C(=O)N[C@@H](Cc2ccc(I)cc2)C(=O)N2CCC[C@H]2C(=O)N[C@H](Cc2ccc(-c3ccccc3)cc2)C(=O)O)C[C@@H]2CCCC[C@@H]21)C(=O)O | 6.3 h | 24% | 8 h | 404 nM·h | 0.07 nM | 1.84 h | 0.074 L/kg | 39 L/h/kg | 0.081 L/h/kg | 426 nM·h | 4.39 nM | > 90% | 66% | 84% | 0.0021
2 | CC(=O)N[C@@H](CCCCNC(=N)N)C(=O)N[C@H](CCCNC(=N)N)C(=O)N[C@@H](CCC(N)=O)C(=O)N[C@@H](CCCCNC(=N)N)C(=O)N1CCC[C@H]1C(=O)N[C@H](CCCNC(=N)N)C(=O)N(C)[C@@H](CC(C)C)C(=O)N[C@@H](CO)C(=O)N[C@@H](Cc1c[nH]cn1)C(=O)N[C@@H](CCCCN)C(=O)NCC(=O)N1[C@H](C(=O)N[C@@H](Cc2ccc(I)cc2)C(=O)N2CCC[C@H]2C(=O)N[C@H](Cc2ccc(-c3ccccc3)cc2)C(=O)O)C[C@@H]2CCCC[C@@H]21 | – | – | – | – | – | 0.362 h | 0.298 L/kg | 3.37 L/h/kg | 0.603 L/h/kg | 73 nM·h | 1.95 nM | 86% | 41% | 45% | 0.179
3 | CCCCCCCCCCCCCCCCC(=O)N[C@@H](CCC(=O)NCCOCCOCC(=O)NCCOCCOCC(=O)N[C@@H](CCCCNC(=N)N)C(=O)N[C@H](CCCNC(=N)N)C(=O)N[C@@H](CCC(N)=O)C(=O)N[C@@H](CCCCNC(=N)N)C(=O)N1CCC[C@H]1C(=O)N[C@H](CCCNC(=N)N)C(=O)N(C)[C@@H](CC(C)C)C(=O)N[C@@H](CO)C(=O)N[C@@H](Cc1c[nH]cn1)C(=O)N[C@@H](CCCCN)C(=O)NCC(=O)N1[C@H](C(=O)N[C@@H](Cc2ccc(I)cc2)C(=O)N2CCC[C@H]2C(=O)N[C@H](Cc2ccc(-c3ccccc3)cc2)C(=O)O)C[C@@H]2CCCC[C@@H]21)C(=O)O | 10.3 h | 36% | 12 h | 753 nM·h | 0.27 nM | 2.18 h | 0.092 L/kg | 12 L/h/kg | 0.074 L/h/kg | 465 nM·h | 7.42 nM | 79% | 68% | 83% | 0.0064
4 | CC(C)C[C@@H](C(=O)N[C@@H](CO)C(=O)N[C@@H](Cc1c[nH]cn1)C(=O)N[C@@H](CCCNC(=N)N)C(=O)NCC(=O)N1[C@H](C(=O)N[C@@H](Cc2ccc(I)cc2)C(=O)N2CCC[C@H]2C(=O)N[C@H](Cc2ccc(-c3ccccc3)cc2)C(=O)O)C[C@@H]2CCCC[C@@H]21)N(C)C(=O)[C@@H](CCCNC(=N)N)NC(=O)[C@@H]1CCCN1C(=O)[C@H](CCCCNC(=N)N)NC(=O)[C@H](CCC(N)=O)NC(=O)[C@@H](CCCNC(=N)N)NC(=O)[C@H](CCCCNC(=N)N)NC(=O)COCCOCCNC(=O)COCCOCCNC(=O)CC[C@H](NC(=O)CCCCCCCCCCCCCCCCC(=O)O)C(=O)O | > 24 h | > 36% | 24 h | 9580 nM·h | 0.33 nM | 19.7 h | 0.165 L/kg | 5.1 L/h/kg | 0.0066 L/h/kg | 4450 nM·h | 117 nM | > 90% | 85% | 86% | 0.0013
5 | CC(C)C[C@@H](C(=O)N[C@@H](CO)C(=O)N[C@@H](Cc1c[nH]cn1)C(=O)N[C@@H](CCCCN)C(=O)NCC(=O)N1[C@H](C(=O)N[C@@H](Cc2ccc(I)cc2)C(=O)N2CCC[C@H]2C(=O)N[C@H](Cc2ccc(-c3ccccc3)cc2)C(=O)O)C[C@@H]2CCCC[C@@H]21)N(C)C(=O)[C@@H](CCCNC(=N)N)NC(=O)[C@@H]1CCCN1C(=O)[C@H](CCCCNC(=N)N)NC(=O)[C@H](CCC(N)=O)NC(=O)[C@@H](CCCNC(=N)N)NC(=O)[C@H](CCCCNC(=N)N)NC(=O)COCCOCCNC(=O)COCCOCCNC(=O)CC[C@H](NC(=O)CCCCC(=O)O)C(=O)O | 4.1 h | 58% | 4.7 h | 1980 nM·h | 1.2 nM | 2.32 h | 0.139 L/kg | 9.1 L/h/kg | 0.0552 L/h/kg | 682 nM·h | 4.1 nM | > 90% | 15% | 76% | 0.0061
6 | CCCCCC(=O)N[C@@H](CCC(=O)NCCOCCOCC(=O)NCCOCCOCC(=O)N[C@@H](CCCCNC(=N)N)C(=O)N[C@H](CCCNC(=N)N)C(=O)N[C@@H](CCC(N)=O)C(=O)N[C@@H](CCCCNC(=N)N)C(=O)N1CCC[C@H]1C(=O)N[C@H](CCCNC(=N)N)C(=O)N(C)[C@@H](CC(C)C)C(=O)N[C@@H](CO)C(=O)N[C@@H](Cc1c[nH]cn1)C(=O)N[C@@H](CCCCN)C(=O)NCC(=O)N1[C@H](C(=O)N[C@@H](Cc2ccc(I)cc2)C(=O)N2CCC[C@H]2C(=O)N[C@H](Cc2ccc(-c3ccccc3)cc2)C(=O)O)C[C@@H]2CCCC[C@@H]21)C(=O)O | 2.6 h | 56% | 4 h | 1050 nM·h | 0.37 nM | 2.31 h | 0.203 L/kg | 29 L/h/kg | 0.0984 L/h/kg | 372 nM·h | 2.31 nM | – | – | – | 0.0034
7 | CCCCCCCCCCCCC(=O)N[C@@H](CCC(=O)NCCOCCOCC(=O)NCCOCCOCC(=O)N[C@@H](CCCCNC(=N)N)C(=O)N[C@H](CCCNC(=N)N)C(=O)N[C@@H](CCC(N)=O)C(=O)N[C@@H](CCCCNC(=N)N)C(=O)N1CCC[C@H]1C(=O)N[C@H](CCCNC(=N)N)C(=O)N(C)[C@@H](CC(C)C)C(=O)N[C@@H](CO)C(=O)N[C@@H](Cc1c[nH]cn1)C(=O)N[C@@H](CCCCN)C(=O)NCC(=O)N1[C@H](C(=O)N[C@@H](Cc2ccc(I)cc2)C(=O)N2CCC[C@H]2C(=O)N[C@H](Cc2ccc(-c3ccccc3)cc2)C(=O)O)C[C@@H]2CCCC[C@@H]21)C(=O)O | 10.2 h | 33% | 6 h | 349 nM·h | 0.06 nM | 3.4 h | 0.231 L/kg | 60 L/h/kg | 0.131 L/h/kg | 269 nM·h | 6.22 nM | > 90% | 45% | 86% | 0.0022
